# “Also recorded” adds a separate entry of the source. Square brackets hold non-standard residues; d marks the D form. Ends that are not written are not given here. Phe(4-NH2) = Nc1ccc(C[C@H](N)C(=O)O)cc1; Nle = CCCC[C@H](N)C(=O)O; Ac5c = NC1(C(=O)O)CCCC1
# Legend:
# Normal human fibroblasts = assay: Contraction of collagen lattices by human fibroblasts; format: cell-based; conditions: for Diameter of Lattice, Day 1 / Diameter of Lattice, Day 2 / Diameter of Lattice, Day 3 / Diameter of Lattice, Day 4: 10 μg/ml peptide, 1×10^5 fibroblasts/well; for Diameter of Lattice, Day 1: Day 1 of culture; for Diameter of Lattice, Day 2: Day 2 of culture; for Diameter of Lattice, Day 3: Day 3 of culture; for Diameter of Lattice, Day 4: Day 4 of culture
# Protocol: Normal human fibroblasts were purchased from Clonetics (San Diego, Calif.) and were thawed and cultured in Fibroblast Growth Medium (Clonetics) according to the manufacturer's instructions. Once the cells reached confluence in the flask, they were harvested by trypsinization and utilized for the studies described below.
# Rat tails were harvested from 200 gram female rats and frozen until use. The frozen rat tails were thawed in 70% (vol/vol) ethanol for 20 minutes. The tendon bundles were excised in 70% ethanol in a vertical laminar flow hood. The individual tendons were pulled out of the tendon sheath, minced, and placed in dilute acetic acid (1:1000) using 250 ml per tail. The mixture was incubated at 4° C. for 48 hours, at which point the minced tendons had swelled to the volume of the dilute acetic acid. The viscous mixture was centrifuged at 23,000 rpm in a Beckman L ultracentrifuge for 1 hour. The supernatant was harvested and further refined. This crude collagen solution was mixed with 0.1M NaOH in a 6:1 ratio to neutralize the acetic acid and precipitate the collagen. The mixture was then centrifuged at 1500 rpm for 5 minutes. The supernatant was discarded and an equal volume of fresh acetic acid (1:1000) was introduced to resolubilize the collagen over 48 hours. This solution was stored at 4° C. as refined collagen. The protein concentration was determined by BCA assay.
# The collagen lattices for the assessment of contraction by fibroblasts and angiotensin II were formed in 60 mm Falcon bacteriological dishes. Each dish contained 1 ml 4×DMEM High glucose medium, 1 ml fetal calf serum, 0.25 ml NaOH, 1.5 ml of 500 μg/ml refined collagen and 1 ml of fibroblasts in Fibroblast Growth Medium (7.5×10^4 cells/ml to 7.5×10^5 cells/ml). In these cultures, various concentrations of AII (1 to 10 μg/ml) were added to assess the effect of AII on the formation of an artificial dermis. The cultures were placed in an incubator at 37° C. in an atmosphere of 5% CO2 in air. At various times after culture initiation, the diameter of the formed lattice was measured. As there are slight differences in diameter at various points (ie: the lattices were not always perfectly round), the average of the largest and the smallest diameters were taken.
# Similar experiments were conducted using AII analogues and fragments, except that ten μg/ml of each of the peptides shown in Table 3 were added to 1×10^5 of fibroblasts/well. At various times after culture initiation, the diameter of the formed lattice was measured.
# Human keratinocytes = assay: Keratinocyte proliferation on Integra artificial dermis; format: cell-based; conditions: 10 μg/ml peptide, 1×10^5 cells/ml
# From the text: Integra, a commercially available artificial dermis of chondrotin sulfate and collagen, was obtained (Integra Life Sciences) and used in culture as a matrix for keratinocyte growth. The Integras was washed free of preservative by a sterile saline for injection and cut to size to fit snugly into the bottom of 24 well plates. After trimming, the pieces of Integra were placed silicone-side down into the wells.
# Human keratinocytes were purchased from Clonetics and thawed and cultured as described in Example 3, except that they were grown in Keratinocyte Growth Medium, as per the manufacturer's instructions. Once the cells reached confluence in the flask, they were detached from the tissue culture flasks by trypsinization. The cells were resuspended at 1×10^5 cells/ml in Keratinocyte Growth Medium or Keratinocyte Basal Medium with or without 10 μg/ml of various AII-related peptides (AII, AII(1-7), Pro3 AII(1-7), Ala4-AIII, and Pro3-AII; see Table 5 below). One ml of these cell preparations was added to wells of the 24 well plates containing Integra membrane. The cultures were placed in an incubator at 37° C. in an atmosphere of 5% CO2 in air. At various times after initiation of the cultures, the number of keratinocytes on the surface of the Integra membrane in 5 100×fields was assessed under phase contrast microscopy.
# [1] = tested on: living skin equivalent (LSE) epidermis; assay: Epidermal thickness of living skin equivalent (LSE) presoaked in AII and grafted on nude mice; format: in vivo, Swiss nude mice
# From the text: Twenty three male Swiss nude mice (22-24 grams) were purchased from Taconic Laboratories and quarantined at least two days prior to surgery, and divided into 4 groups of mice. The mice were anesthetized with an intramuscular injection of Ketamine (ketaset; Phoenix Pharmaceuticals, Inc.) and Rompun (xylazine; Phoenix Pharmaceuticals, Inc.) and a 1 cm×1 cm full thickness skin excision was made on their dorsal surface. Each group received an Apligraph LSE (Organogenesis; Canton, Mass.) that had been soaked for 10 minutes in concentrations of AII ranging from 0 to 1.0 mg/ml. The LSE was placed in the defect and trimmed with microscissors so that no gap was observed between the edges of the mouse skin and the LSE. After the graft was placed, the dorsal surface of the mouse was covered by petroleum embedded gauze (Dermacea) followed by two adhesive bandages (Baxter). After recovery from anesthesia, the mice were returned to their individual cages and observed daily until euthenasia. The mice received intramuscular analgesia for the first three days after surgery. No mouse lost their bandage prior to bandage removal on day 7 and day 23. […]
# […] The thickest part of each graft was measured and the thickness of the graft at one-half of a 10×field to each side of the thickest portion was also measured.
# [2] = tested on: keratinocytes from explants of human skin; assay: Outgrowth of keratinocytes from explants of human skin on Dermagraft; format: cell-based; conditions: AII 1 or 10 μg/ml, 7 days
# From the text: Human skin explants were obtained from surgery of split thickness skin grafts and cut by scalpel in to 2 mm×2 mm squares. Ten explants per condition were placed dermal side down on frozen and thawed Dermagraft (Advanced Tissue Sciences, San Diego, Calif.) and cultured at the air-liquid interface using Keratinocyte-SFM medium (Gibco BRL, Grand Island, N.Y.) supplemented with epidermal growth factor and bovine pituitary extract according to the manufacturer's instructions. The culture medium contained penicillin (50 U/ml) and streptomycin (50 μg/ml) and extra calcium chloride to a final concentration of 1 mM. Angiotensin II was added to the culture medium at a final concentration of 1 or 10 μg/ml. The cultures were maintained at 37° C. with 5% CO2 and medium with and without AII and the medium was changed twice weekly. After 7 days, the cultures were fixed in formalin for one hour, stained with hematoxylin and washed in tap water. The dermal replacements appeared dark purple except for the area where the keratinocytes exclude the stain. Cultures were photographed using a dissection microscope at a fixed magnification and the area of outgrowth was quantified by gravimetric planimetry.
# AT2 receptor = conditions: cited from earlier work
# [3] = Unspecified test of effectiveness of AII fragments; conditions: test not specified
Substance,"Diameter of Lattice, Day 1 (Normal human fibroblasts) [cm]","Diameter of Lattice, Day 2 (Normal human fibroblasts) [cm]","Diameter of Lattice, Day 3 (Normal human fibroblasts) [cm]","Diameter of Lattice, Day 4 (Normal human fibroblasts) [cm]",proliferation of keratinocytes (number on the surface of the Integra membrane) (Human keratinocytes),further results
Asp-Arg-Val-Tyr-Ile-His-Pro (DRVYIHP) [AII(1-7)],3.4,2.4,2.0,1.7,increased the proliferation of keratinocytes,
--RVYnLHPF (RVY[Nle]HPF) [NorLeu4 AIII],3.4,2.0,1.6,1.5,,
"Asp-Arg-Val-Tyr-Ile-His-Pro-Phe (DRVYIHPF) [AII, known pressor agent, commercially available, reference compound]",3.3,2.4,1.6,1.4,increased the proliferation of keratinocytes,"vessels attached to underside of graft ([1]; day 7, one of the AII-treated grafts): numerous vessels attached to its underside; epidermal thickness ([1]; day 23 post-grafting, LSE soaked 10 minutes in AII 0 to 1.0 mg/ml): increased in a concentration-dependent manner; contraction of collagen lattices (Normal human fibroblasts; AII 1 to 10 μg/ml, fibroblasts 7.5×10^4 to 7.5×10^5 cells/ml): accelerated the contraction of collagen lattices; area of the artificial dermis covered with keratinocytes (outgrowth) [2]: increased the area of the artificial dermis covered with keratinocytes; affinity for AT2 than AT1 (AT2 receptor; AT2 versus AT1): 100 times"
GRVYIHPF [Gly1 AII],3.4,2.2,1.6,1.5,,
DRPYIHPF [Pro3-AII],,,,,increased the proliferation of keratinocytes,
Tyr-Ile-His-Pro-Phe (YIHPF) [AII(4-8)],,,,,,effectiveness [3]: not to be effective; also recorded: ineffective in repeated tests
RVYAHPF [Ala4-AIII],3.4,2.7,1.9,1.6,increased the proliferation of keratinocytes,
Asp-Arg-Val-Tyr-Ile-Xaa-Pro-Phe (DRVYI[Phe(4-NH2)]PF) [(p-NH2-Phe)6-AII],,,,,,"binding characteristics (AT2 receptor; experimental models tested, compared with AT2 antagonists): comparable to AT2 antagonists"
DRPYIHP [Pro3 AII(1-7)],,,,,increased the proliferation of keratinocytes,
DRVYIHPI [Ile8 AII],3.4,2.4,1.7,1.4,,
His-Pro-Phe (HPF) [AII(6-8)],,,,,,effectiveness [3]: not to be effective
DR(Acpc)YIHPF (DR[Ac5c]YIHPF) [Acpc3 AII],3.5,2.0,1.6,1.4,,

# Reference: US6498138B1, “Method of promoting production of living tissue equivalents” (University of Southern California, priority 1998, dated 2002)
